Where a name gives a salt, the structure may show the parent alone.
Biological target: T1, recombinant human GSK3β (Homo sapiens, UniProt P49841)
T1 construct: purchased Dundee University, UK
Experiment: GSK3β Scintillation Proximity Assay (ATP competition)
Type: biochemical
Details: inhibition constants calculated with Km of ATP for GSK3β of 20 μM; 1 μM ATP, 1 μM biotinylated peptide substrate
Protocol: Determination of ATP Competition in Scintillation Proximity GSK3β Assay.
GSK3β Scintillation Proximity Assay.
The competition experiments were carried out in duplicate with 10 different concentrations of the inhibitors in clear-bottom microtiter plates (Wallac, Finland). A biotinylated peptide substrate, Biotin-Ala-Ala-Glu-Glu-Leu-Asp-Ser-Arg-Ala-Gly-Ser(PO3H2)-Pro-Gln-Leu (AstraZeneca, Lund), was added at a final concentration of 1 μM in an assay buffer containing 1 mU recombinant human GSK3β (Dundee University, UK), 12 mM morpholinepropanesulfonic acid (MOPS), pH 7.0, 0.3 mM EDTA, 0.01% β-mercaptoethanol, 0.004% Brij 35 (a […] detergent), 0.5% glycerol and 0.5 μg BSA/25 μl. The reaction was initiated by the addition of 0.04 μCi [γ-^33P]ATP (Amersham, UK) and unlabelled ATP at a final concentration of 1 μM and assay volume of 25 μl. After incubation for 20 minutes at room temperature, each reaction was terminated by the addition of 25 μl stop solution containing 5 mM EDTA, 50 μM ATP, 0.1% Triton X-100 and 0.25 mg streptavidin coated Scintillation Proximity Assay (SPA) beads (Amersham, UK). After 6 hours the radioactivity was determined in a liquid scintillation counter (1450 MicroBeta Trilux, Wallac). The inhibition curves were analysed by non-linear regression using GraphPad Prism, USA. The Km value of ATP for GSK3β, used to calculate the inhibition constants (Ki) of the various compounds, was 20 μM.

T1 sequence (P49841 whole entry): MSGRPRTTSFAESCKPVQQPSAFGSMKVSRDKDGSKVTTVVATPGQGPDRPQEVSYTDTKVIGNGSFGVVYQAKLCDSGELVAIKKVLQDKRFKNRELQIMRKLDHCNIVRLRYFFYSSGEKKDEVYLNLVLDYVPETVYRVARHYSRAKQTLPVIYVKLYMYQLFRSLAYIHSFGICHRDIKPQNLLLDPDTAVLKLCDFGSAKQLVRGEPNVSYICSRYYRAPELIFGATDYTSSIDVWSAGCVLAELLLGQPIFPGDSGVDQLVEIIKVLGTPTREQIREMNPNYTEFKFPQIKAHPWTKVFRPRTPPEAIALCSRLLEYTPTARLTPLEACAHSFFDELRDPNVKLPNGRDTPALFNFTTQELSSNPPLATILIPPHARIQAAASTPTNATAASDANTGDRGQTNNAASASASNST

Row | Ki [nM] | SMILES
1 | 26 | Cc1ncc(-c2nc(Nc3ccc(C(=O)N4CCCCC4)nc3)ncc2F)n1C1CCOCC1 [Example 20, [5-[[5-Fluoro-4-[2-methyl-3-(oxan-4-yl)imidazol-4-yl]pyrimidin-2-yl]amino]pyridin-2-yl]-(1-piperidyl)methanone]
2 | 56 | CCCN1CCN(C(=O)c2ccc(Nc3ncc(F)c(-c4cnc(C)n4C4CCOCC4)n3)cn2)CC1 [Example 37, [5-[[5-Fluoro-4-[2-methyl-3-(oxan-4-yl)imidazol-4-yl]pyrimidin-2-yl]amino]pyridin-2-yl]-(4-propylpiperazin-1-yl)methanone]
3 | 33 | Cc1ncc(-c2nc(Nc3ccc(S(=O)(=O)C(C)C)nc3)ncc2F)n1C1CCOCC1 [Example 50, {5-Fluoro-4-[2-methyl-3-(tetrahydro-pyran-4-yl)-3H-imidazol-4-yl]-pyrimidin-2-yl}-[6-(propan-2-ylsulfonyl)-pyridin-3-yl]-amine]
4 | 16 | Cc1ncc(-c2nc(Nc3cnc(C(=O)N4CCC4)c(Cl)c3)ncc2F)n1C [Example 48, N-[6-(Azetidin-1-ylcarbonyl)-5-chloropyridin-3-yl]-4-(1,2-dimethyl-1H-imidazol-5-yl)-5-fluoropyrimidin-2-amine]
5 | 85 | CCC(C)N1CCN(C(=O)c2ccc(Nc3ncc(F)c(-c4cnc(C)n4C4CCOCC4)n3)cn2)CC1 (stereo not shown) [Example 34, (4-Butan-2-ylpiperazin-1-yl)-[5-[[5-fluoro-4-[2-methyl-3-(oxan-4-yl)imidazol-4-yl]pyrimidin-2-yl]amino]pyridin-2-yl]methanone]
6 | 28 | COC1CCN(C(=O)c2ccc(Nc3ncc(F)c(-c4cnc(C)n4C4CCOCC4)n3)cn2)CC1 [Example 25, [5-[[5-Fluoro-4-[2-methyl-3-(oxan-4-yl)imidazol-4-yl]pyrimidin-2-yl]amino]pyridin-2-yl]-(4-methoxy-1-piperidyl)methanone]
7 | 17 | Cc1ncc(-c2nc(Nc3ccc(C(=O)N(Cc4ccccc4)C(C)C)nc3)ncc2F)n1C1CCOCC1 [Example 30, N-Benzyl-5-[[5-fluoro-4-[2-methyl-3-(oxan-4-yl)imidazol-4-yl]pyrimidin-2-yl]amino]-N-propan-2-yl-pyridine-2-carboxamide]
8 | 16 | CCN(Cc1ccccc1)C(=O)c1ccc(Nc2ncc(F)c(-c3cnc(C)n3C3CCOCC3)n2)cn1 [Example 33, N-Benzyl-N-ethyl-5-[[5-fluoro-4-[2-methyl-3-(oxan-4-yl)imidazol-4-yl]pyrimidin-2-yl]amino]pyridine-2-carboxamide]
9 | 25 | CCN(C(=O)c1ccc(Nc2ncc(F)c(-c3cnc(C)n3C3CCOCC3)n2)cn1)C(C)C [Example 19, N-Ethyl-5-[[5-fluoro-4-[2-methyl-3-(oxan-4-yl)imidazol-4-yl]pyrimidin-2-yl]amino]-N-propan-2-yl-pyridine-2-carboxamide]
10 | 19 | Cc1ncc(-c2nc(Nc3cnc(C(=O)N4CCN(C)CC4)c(Cl)c3)ncc2F)n1C [Example 49, N-[5-Chloro-6-[(4-methylpiperazin-1-yl)carbonyl]pyridin-3-yl]-4-(1,2-dimethyl-1H-imidazol-5-yl)-5-fluoropyrimidin-2-amine]
11 | 19 | O=C(c1ncc(Nc2ncc(F)c(-c3cnc(C(F)(F)F)n3C3CCOCC3)n2)cc1Cl)N1CCCCC1 [Example 57, N-[5-Chloro-6-(piperidin-1-ylcarbonyl)pyridin-3-yl]-5-fluoro-4-[1-(tetrahydro-2H-pyran-4-yl)-2-(trifluoromethyl)-1H-imidazol-5-yl]pyrimidin-2-amine hydrochloride]
12 | 47 | CCCCN1CCN(C(=O)c2ccc(Nc3ncc(F)c(-c4cnc(C)n4C4CCOCC4)n3)cn2)CC1 [Example 18, (4-Butylpiperazin-1-yl)-[5-[[5-fluoro-4-[2-methyl-3-(oxan-4-yl)imidazol-4-yl]pyrimidin-2-yl]amino]pyridin-2-yl]methanone]
13 | 31 | CCN(C)C(=O)c1ccc(Nc2ncc(F)c(-c3cnc(C)n3C3CCOCC3)n2)cn1 [Example 26, N-Ethyl-5-[[5-fluoro-4-[2-methyl-3-(oxan-4-yl)imidazol-4-yl]pyrimidin-2-yl]amino]-N-methyl-pyridine-2-carboxamide]
14 | 21 | CCS(=O)(=O)c1ccc(Nc2ncc(F)c(-c3cnc(C)n3C3CCOCC3)n2)cn1 [Example 51, (6-Ethanesulfonyl-pyridin-3-yl)-{5-fluoro-4-[2-methyl-3-(tetrahydro-pyran-4-yl)-3H-imidazol-4-yl]-pyrimidin-2-yl}-amine]
15 | 20 | Cc1ncc(-c2nc(Nc3ccc(S(=O)(=O)N(C)C)nc3)ncc2F)n1C1CCOCC1 [Example 53]
16 | 10 | Cc1ncc(-c2nc(Nc3ccc(C(=O)N4CCN(c5ccc(F)cc5)CC4)nc3)ncc2F)n1C1CCOCC1 [Example 36, [5-[[5-Fluoro-4-[2-methyl-3-(oxan-4-yl)imidazol-4-yl]pyrimidin-2-yl]amino]pyridin-2-yl]-[4-(4-fluorophenyl)piperazin-1-yl]methanone]
17 | 45 | CCOc1ccc(Nc2ncc(F)c(-c3cnc(C)n3C3CCOCC3)n2)cn1 [Example 10, (6-Ethoxy-pyridin-3-yl)-{5-fluoro-4-[2-methyl-3-(tetrahydro-pyran-4-yl)-3H-imidazol-4-yl]-pyrimidin-2-yl}-amine]
18 | 661 | Cc1ncc(-c2nc(Nc3ccc(C(=O)N4CCN(C)CC4)cn3)ncc2F)n1C1CCOCC1 [Example 3, 5-Fluoro-N-{5-[(4-methylpiperazin-1-yl)carbonyl]pyridin-2-yl}-4-[2-methyl-1-(tetrahydro-2H-pyran-4-yl)-1H-imidazol-5-yl]pyrimidin-2-amine]
19 | 7 | Cc1ncc(-c2nc(Nc3cnc(C(=O)N4CCCCC4)c(Cl)c3)ncc2F)n1C1CCOCC1 [Example 54, N-[5-Chloro-6-(piperidin-1-ylcarbonyl)pyridin-3-yl]-5-fluoro-4-[2-methyl-1-(tetrahydro-2H-pyran-4-yl)-1H-imidazol-5-yl]pyrimidin-2-amine hydrocholoride, hydrochloride]
20 | 55 | Cn1c(-c2nc(Nc3cnc(C(=O)N4CCCCC4)c(Cl)c3)ncc2F)cnc1C(F)(F)F [Example 56, N-[5-Chloro-6-(piperidin-1-ylcarbonyl)pyridin-3-yl]-5-fluoro-4-[1-methyl-2-(trifluoromethyl)-1H-imidazol-5-yl]pyrimidin-2-amine hydrochloride]
21 | 29 | CCN(CC)C(=O)c1ccc(Nc2ncc(F)c(-c3cnc(C)n3C3CCOCC3)n2)cn1 [Example 38, N,N-Diethyl-5-[[5-fluoro-4-[2-methyl-3-(oxan-4-yl)imidazol-4-yl]pyrimidin-2-yl]amino]pyridine-2-carboxamide]
22 | 468 | Cc1ncc(-c2nc(Nc3ccc(S(C)(=O)=O)cn3)ncc2F)n1C1CCOCC1 [Example 1, 5-Fluoro-N-[5-(methylsulfonyl)pyridin-2-yl]-4-[2-methyl-1-(tetrahydro-2H-pyran-4-yl)-1H-imidazol-5-yl]pyrimidin-2-amine hydrochloride]
23 | 16 | Cc1ncc(-c2nc(Nc3ccc(C(=O)N4CCCC(C)C4)nc3)ncc2F)n1C1CCOCC1 (stereo not shown) [Example 14, [5-[[5-Fluoro-4-[2-methyl-3-(oxan-4-yl)imidazol-4-yl]pyrimidin-2-yl]amino]pyridin-2-yl]-(3-methyl-1-piperidyl)methanone]
24 | 30 | Cc1ncc(-c2nc(Nc3ccc(S(=O)(=O)N4CCN(C)CC4)nc3)ncc2F)n1C1CCOCC1 [Example 58, {5-Fluoro-4-[2-methyl-3-(tetrahydro-pyran-4-yl)-3H-imidazol-4-yl]-pyrimidin-2-yl}-[6-(4-methyl-piperazine-1-sulfonyl)-pyridin-3-yl]-amine]
25 | 63 | Cc1ncc(-c2nc(Nc3ccc(C(=O)N4CCN(C)CC4)nc3)ncc2F)n1C1CCOCC1 [Example 4, 5-Fluoro-N-{6-[(4-methylpiperazin-1-yl)carbonyl]pyridin-3-yl}-4-[2-methyl-1-(tetrahydro-2H-pyran-4-yl)-1H-imidazol-5-yl]pyrimidin-2-amine]
26 | 16 | Cc1ncc(-c2nc(Nc3ccc(C(=O)N4CC(C)CC(C)C4)nc3)ncc2F)n1C1CCOCC1 (stereo not shown) [Example 40, (3,5-Dimethyl-1-piperidyl)-[5-[[5-fluoro-4-[2-methyl-3-(oxan-4-yl)imidazol-4-yl]pyrimidin-2-yl]amino]pyridin-2-yl]methanone]
27 | 90 | Cc1ncc(-c2nc(Nc3ccc(C(=O)N4CCN(C(C)C)CC4)nc3)ncc2F)n1C1CCOCC1 [Example 21, [5-[[5-Fluoro-4-[2-methyl-3-(oxan-4-yl)imidazol-4-yl]pyrimidin-2-yl]amino]pyridin-2-yl]-(4-propan-2-ylpiperazin-1-yl)methanone]
28 | 12 | Cc1ncc(-c2nc(Nc3ccc(C(=O)N(C)CC(C)C)nc3)ncc2F)n1C1CCOCC1 [Example 31, 5-[[5-Fluoro-4-[2-methyl-3-(oxan-4-yl)imidazol-4-yl]pyrimidin-2-yl]amino]-N-methyl-N-(2-methylpropyl)pyridine-2-carboxamide]

Reference: patent publication US20080188502A1, “New Compounds I” (AstraZeneca AB, priority 2006, published 2008)
